# According to article PMC4509505 (Journal of functional foods, 2015):
# Like-named read-outs stand apart in the source and are kept apart here.
# How the values were obtained:
# human lung cancer cells = human lung cancer cells in vitro; ref Forester & Lambert, 2014; cited from earlier work
# murine lung cancer cells = murine lung cancer cells in vitro; ref Forester & Lambert, 2014; cited from earlier work
# [1] = assay type: in vivo, male CF-1 mice; conditions: for AUC0→720min / Cmax / Tmax: EGCG 100 mg/kg i.g.
# [2] = molecular target: T1, catechol-O-methyl transferase (COMT) (Mus musculus, UniProt O88587); test: Fraction of unmethylated total EGCG; assay type: in vivo, male CF-1 mice
# T1 sequence (O88587 1-265): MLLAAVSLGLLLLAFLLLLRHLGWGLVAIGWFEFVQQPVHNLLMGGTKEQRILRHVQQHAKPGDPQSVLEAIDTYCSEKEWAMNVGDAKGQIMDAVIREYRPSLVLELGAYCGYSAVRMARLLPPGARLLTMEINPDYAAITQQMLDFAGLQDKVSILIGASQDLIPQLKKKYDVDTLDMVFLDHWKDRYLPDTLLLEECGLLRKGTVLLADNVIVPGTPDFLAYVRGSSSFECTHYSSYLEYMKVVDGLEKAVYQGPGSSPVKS
# COMT = conditions: ref Wang, Heber, & Henning, 2012; cited from earlier work
smiles,measurement,setting,value
"Cc1ccc(C(=O)c2cc(O)c(O)c([N+](=O)[O-])c2)cc1 [TOL, tolcapone, reference compound]",growth inhibition in combination with EGCG,human lung cancer cells,synergistically inhibited
same,growth inhibition in combination with EGCG,murine lung cancer cells,synergistically inhibited
same,"effect on Cmax of unmethylated, unconjugated EGCG","[1]; cecum or colon, TOL co-treatment vs EGCG only",did not affect
same,"effect on AUC0→720min of unmethylated, unconjugated EGCG","[1]; liver, kidney, lung and urine, TOL co-administration vs EGCG only",tended to increase
same,"effect on AUC0→720min of unmethylated, unconjugated EGCG","[1]; plasma, cecum and colon, TOL co-treatment vs EGCG only",nor did it affect
same,"effect on Cmax of unmethylated, unconjugated EGCG","[1]; plasma, liver, kidney, lung and urine, TOL co-administration vs EGCG only",tended to increase
same,"effect on levels of unmetabolised (unmethylated, unconjugated) EGCG","[1]; plasma, co-treatment TOL 30 mg/kg + EGCG 100 mg/kg i.g. vs EGCG only (Fig. 2)",did not significantly affect
"O=C(O[C@@H]1Cc2c(O)cc(O)cc2O[C@@H]1c1cc(O)c(O)c(O)c1)c1cc(O)c(O)c(O)c1 [EGCG, (−)-epigallocatechin-3-gallate]",unmethylated EGCG as fraction of the total,"[2]; plasma, EGCG 100 mg/kg i.g. with co-administration of TOL 30 mg/kg i.g.",87.9%
same,unmethylated EGCG as fraction of the total,"[2]; plasma, mice treated with EGCG 100 mg/kg i.g. only",63.4%
same,unmethylated EGCG as fraction of the total,"[2]; urine, EGCG 100 mg/kg i.g. plus TOL 30 mg/kg i.g.",81.8%
same,unmethylated EGCG as fraction of the total,"[2]; urine, mice treated with EGCG 100 mg/kg i.g. only",29.2%
same,AUC0→720min,"[1]; Cecum, TOL (+) 30 mg/kg i.g.",39152.8 ± 8338.2 (nmol/g)•min
same,Cmax,"[1]; Cecum, TOL (+) 30 mg/kg i.g.",97.7 ± 19.4 nmol/g
same,Tmax,"[1]; Cecum, TOL (+) 30 mg/kg i.g.",7.555 ± 2.118 h
same,AUC0→720min,"[1]; Cecum, TOL (−)",41580.2 ± 10560.6 (nmol/g)•min
same,Cmax,"[1]; Cecum, TOL (−)",117.7 ± 31.7 nmol/g
same,Tmax,"[1]; Cecum, TOL (−)",5.013 ± 1.66 h
same,AUC0→720min,"[1]; Colon, TOL (+) 30 mg/kg i.g.",18631.3 ± 2844.0 (nmol/g)•min
same,Cmax,"[1]; Colon, TOL (+) 30 mg/kg i.g.",37.6 ± 5.8 nmol/g
same,Tmax,"[1]; Colon, TOL (+) 30 mg/kg i.g.",4 ± 1 h
same,AUC0→720min,"[1]; Colon, TOL (−)",26301.3 ± 8881.3 (nmol/g)•min
same,Cmax,"[1]; Colon, TOL (−)",63.8 ± 9.6 nmol/g
same,Tmax,"[1]; Colon, TOL (−)",7 ± 2.645 h
same,AUC0→720min,"[1]; Kidney, TOL (+) 30 mg/kg i.g.",461.7 ± 358.5 (nmol/g)•min
same,Cmax,"[1]; Kidney, TOL (+) 30 mg/kg i.g.",2.0 ± 1.7 nmol/g
same,Tmax,"[1]; Kidney, TOL (+) 30 mg/kg i.g.",4.445 ± 3.783 h
same,AUC0→720min,"[1]; Kidney, TOL (−)",95.7 ± 5.6 (nmol/g)•min
same,Cmax,"[1]; Kidney, TOL (−)",0.4 ± 0.1 nmol/g
same,Tmax,"[1]; Kidney, TOL (−)",6.028 ± 3.44 h
same,AUC0→720min,"[1]; Liver, TOL (+) 30 mg/kg i.g.",1324.8 ± 390.5 (nmol/g)•min
same,Cmax,"[1]; Liver, TOL (+) 30 mg/kg i.g.",2.7 ± 0.7 nmol/g
same,Tmax,"[1]; Liver, TOL (+) 30 mg/kg i.g.",3.528 ± 1.792 h
same,AUC0→720min,"[1]; Liver, TOL (−)",871.5 ± 401.9 (nmol/g)•min
same,Cmax,"[1]; Liver, TOL (−)",2.2 ± 0.9 nmol/g
same,Tmax,"[1]; Liver, TOL (−)",3.333 ± 0.918 h
same,AUC0→720min,"[1]; Lung, TOL (+) 30 mg/kg i.g.",1002.1 ± 682.1 (nmol/g)•min
same,Cmax,"[1]; Lung, TOL (+) 30 mg/kg i.g.",23.3 ± 20.8 nmol/g
same,Tmax,"[1]; Lung, TOL (+) 30 mg/kg i.g.",2.792 ± 1.893 h
same,AUC0→720min,"[1]; Lung, TOL (−)",203.3 ± 156.4 (nmol/g)•min
same,Cmax,"[1]; Lung, TOL (−)",1.4 ± 1.2 nmol/g
same,Tmax,"[1]; Lung, TOL (−)",2.355 ± 1.38 h
same,AUC0→720min,"[1]; Plasma, TOL (+) 30 mg/kg i.g.",154887.7 ± 39082.1 nM·min
same,Cmax,"[1]; Plasma, TOL (+) 30 mg/kg i.g.",1530 ± 345 nM
same,Tmax,"[1]; Plasma, TOL (+) 30 mg/kg i.g.",0.208 ± 0.0567 h
same,AUC0→720min,"[1]; Plasma, TOL (−)",245330.8 ± 74700.1 nM·min
same,Cmax,"[1]; Plasma, TOL (−)",1190 ± 315 nM
same,Tmax,"[1]; Plasma, TOL (−)",0.278 ± 0.15 h
same,Tmax,"[1]; Urine (pooled), TOL (+) 30 mg/kg i.g.",0.333 h
same,Tmax,"[1]; Urine (pooled), TOL (−)",0.083 h
CCN(CC)C(=O)/C(C#N)=C/c1cc(O)c(O)c([N+](=O)[O-])c1 [entacapone],growth inhibition in combination with EGCG,human lung cancer cells,synergistically inhibited
same,growth inhibition in combination with EGCG,murine lung cancer cells,synergistically inhibited
O=c1c(O)c(-c2ccc(O)c(O)c2)oc2cc(O)cc(O)c12 [quercetin],increase of the levels of EGCG found in the lung and kidney,COMT,greater than 2 fold
